Columns and labels:
HeLa = assay: Antiproliferative activity against human HeLa cells assessed as reduction in cell viability incubated for 48 hrs by CCk-8 assay; format: functional, cell-based
DU-145 = assay: Antiproliferative activity against human DU-145 cells assessed as reduction in cell viability incubated for 48 hrs by CCk-8 assay; format: functional, cell-based; settings: DU-145, 48 h
A-375 = assay: Antiproliferative activity against human A-375 cells assessed as reduction in cell viability incubated for 48 hrs by CCk-8 assay; format: functional, cell-based; settings: A-375, 48 h
A549 = assay: Antiproliferative activity against human A549 cells assessed as reduction in cell viability incubated for 48 hrs by CCk-8 assay; format: functional, cell-based; settings: A549, 48 h
HepG2 = assay: Antiproliferative activity against human HepG2 cells assessed as reduction in cell viability incubated for 48 hrs by CCk-8 assay; format: functional, cell-based; settings: HepG2, 48 h
[1] = Selectivity index, ratio of IC50 for antiproliferative activity against human L02 cells to IC50 for antiproliferative activity against human MDA-MB-231 cells; format: toxicity, cell-based; settings: L02 cells and MDA-MB-231 cells, read-out: Ratio IC50
[2] = Antiproliferative activity against human L02 cells assessed as reduction in cell viability incubated for 48 hrs by CCk-8 assay; format: toxicity, cell-based
MDA-MB-231 = assay: Antiproliferative activity against human MDA-MB-231 cells assessed as reduction in cell viability incubated for 48 hrs by CCk-8 assay; format: functional, cell-based; settings: MDA-MB-231, 48 h

Row | SMILES | IC50 (HeLa) [nM] | IC50 (DU-145) [nM] | IC50 (A-375) [nM] | IC50 (A549) [nM] | IC50 (HepG2) [nM] | selectivity ratio [1] | IC50 at 48 h [2] [nM] | IC50 (MDA-MB-231) [nM]
1 | C[C@H]1CCC/C=C/[C@@H]2C[C@H](O)C[C@H]2[C@H](O)/C=C/C(=O)O1 [BREFELDIN A] | 44 | 160 | 39 | 56 | 120 | 1.74 | 94 | 54
2 | C[C@H]1CCC/C=C/[C@@H]2C[C@H](O)C[C@H]2[C@H](OC(=O)CCCC(=O)Oc2ccc(-c3cc(=S)ss3)cc2)/C=C/C(=O)O1 | 5300 | 19500 | 30000 | 18200 | 18000 | 2.57 | 24800 | 9650
3 | C[C@H]1CCC/C=C/[C@@H]2C[C@H](O)C[C@H]2[C@H](OC(=O)CCC(=O)OCCCCCCOc2ccc(-c3cc(=S)ss3)cc2)/C=C/C(=O)O1 | 770 | 3640 | 640 | 1520 | 3420 | 2.31 | 3260 | 1410
4 | C[C@H]1CCC/C=C/[C@@H]2C[C@H](O)C[C@H]2[C@H](OC(=O)CCCC(=O)OCCCCOc2ccc(-c3cc(=S)ss3)cc2)/C=C/C(=O)O1 | 230 | 430 | 930 | 1040 | 440 | 2.69 | 430 | 160
